According to patent US20250368633A1, “AZEPINE FUSED RING COMPOUND AS RIPK1 INHIBITOR AND USE THEREOF” (ARTIVILA BIOPHARMA, priority 2022, published 2025):

What was measured:
RIPK1 kinase [1] = target: T1, RIPK1 kinase (Homo sapiens, UniProt Q13546); assay: In vitro RIPK1 kinase activity assay (ADP-Glo), inhibition by compounds at 1 μM; assay type: biochemical; conditions: compound 1 μM; ATP 10 μM; MBP substrate 100 μg/mL; read-out: RIPK1 kinase activity inhibition rate range
T1 construct: purchased Promega VA7593
T1 sequence (Q13546 1-671): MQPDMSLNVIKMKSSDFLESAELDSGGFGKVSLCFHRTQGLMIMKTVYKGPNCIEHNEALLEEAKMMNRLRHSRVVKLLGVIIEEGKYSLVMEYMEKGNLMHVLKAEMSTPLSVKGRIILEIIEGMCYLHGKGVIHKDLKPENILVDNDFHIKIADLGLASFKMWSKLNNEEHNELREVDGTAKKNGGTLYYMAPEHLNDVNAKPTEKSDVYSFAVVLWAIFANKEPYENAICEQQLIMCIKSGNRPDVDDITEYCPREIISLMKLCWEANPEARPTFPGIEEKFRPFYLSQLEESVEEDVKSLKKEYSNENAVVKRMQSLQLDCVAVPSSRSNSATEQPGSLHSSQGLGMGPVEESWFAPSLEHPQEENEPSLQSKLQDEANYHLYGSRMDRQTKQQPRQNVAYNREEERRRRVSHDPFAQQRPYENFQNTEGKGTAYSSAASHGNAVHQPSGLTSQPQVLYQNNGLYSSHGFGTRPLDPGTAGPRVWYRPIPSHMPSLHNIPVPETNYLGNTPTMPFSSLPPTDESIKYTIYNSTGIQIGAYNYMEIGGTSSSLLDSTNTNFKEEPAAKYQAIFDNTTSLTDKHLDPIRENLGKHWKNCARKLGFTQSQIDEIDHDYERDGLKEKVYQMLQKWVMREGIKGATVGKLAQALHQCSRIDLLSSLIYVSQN
In short: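 Compound and RIPK1 were preincubated 15 min at room temperature, then reacted 1 h with 10 μM ATP and 100 μg/mL MBP substrate in kinase buffer D. ADP formed was measured by ADP-Glo luminescence and converted to percent inhibition of kinase activity.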

RIPK1 kinase [2] = target: T1, RIPK1 kinase; assay: In vitro RIPK1 kinase activity IC50 assay (ADP-Glo); assay type: biochemical; conditions: ATP 10 μM; MBP substrate 100 μg/mL; 8 concentration points; read-out: IC50 range of compounds for RIPK1 kinase activity
Procedure: RIPK1 kinase activity was assayed using the ADP-Glo assay and RIPK1 kinase reaction system (Promega, catalog number: VA7593). The RIPK1 kinase activity assay was performed according to the Promega kit manual.
The experimental method was briefly described as below. The concentration of RIPK1 kinase in the RIPK1 kinase reaction system was determined by kinase titration and S/B10. The compound was diluted with 1× kinase buffer D (1% DMSO), 1 μL of 1 mM compound DMSO stock solution was added to 19 μL 1× kinase buffer D, and the compound was serially diluted with 1× kinase buffer D at a ratio of 1:5, for a total of 8 concentration points, and a control with the same DMSO volume was set. RIPK1 kinase was diluted with 1× kinase buffer D. 2.5×ATP/substrate was diluted with 1× kinase buffer D. The final concentration of ATP in the kinase reaction system was 10 μM. The final concentration of MBP substrate was 100 μg/mL. 1 μL of diluted compound and 2 μL of diluted RIPK1 kinase were mixed, incubated at room temperature for 15 minutes, 2 μL of 2.5×ATP/substrate was added, mixed, and incubated at room temperature for 1 hour. 5 μL ADP-Glo reagent was added to each well and incubated at room temperature for 1 hour. 10 μL ADP detection reagent was added to each well and incubated at room temperature for another 0.5-1 hour. The chemiluminescent signal was read with a microplate reader and the kinase activity inhibition rate was calculated. IC50 was obtained by fitting the nonlinear regression curve log [inhibitor] vs. response-variable slope (four parameters) in GraphPad Prism.

U937 cells = assay: Inhibition rate of compound (1 μM) on necroptosis of U937 cells (TSZ-induced, CellTiter-Glo); assay type: cell-based; conditions: TSZ (hTNF-α, SM-164, Z-VAD-FMK) 20 hours
In short: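 U937 cells were pretreated 15 min with compound, then necroptosis was triggered with TSZ (Z-VAD-FMK, hTNF-α, SM-164) for 20 h at 37° C. Viability was read as ATP by CellTiter-Glo luminescence, and inhibition (%) was taken relative to no-TSZ and TSZ-only wells.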

Compound | inhibition at 1 µM (RIPK1 kinase [1]) | IC50 (RIPK1 kinase [2]) | Inhibition rate range of compounds (1 μM) on U937 cell necroptosis (U937 cells)
C[C@@H](CNC(=O)C(=O)N[C@H]1COc2ccc(C#CCCO)cc2N(C)C1=O)c1ccccc1 [Example 155, N^1-((S)-7-(4-hydroxybut-1-yn-1-yl)-5-methyl-4-oxo-2,3,4,5-tetrahydrobenzo[b][1,4]oxazepin-3-yl)-N^2-((R)-2-phenylpropyl)oxalamide] | ≥ 75% | < 100 nM | A (A: ≥90%)
CN1C(=O)[C@@H](NC(=O)C(=O)NCCc2ccc(F)cc2)COc2ccc(C#CCCO)cc21 [Example 35, (S)—N^1-(4-fluorophenethyl)-N^2-(7-(4-hydroxybut-1-yn-1-yl)-5-methyl-4-oxo-2,3,4,5-tetrahydrobenzo[b][1,4]oxazepin-3-yl)oxalamide] | 50 to 74% | < 100 nM | A (A: ≥90%)
CN1C(=O)C(NC(=O)C(=O)NCCc2cccc(F)c2)CCc2ccc(C#CCCO)cc21 (stereo not drawn) [Example 167, N^1-(3-fluorophenethyl)-N^2-(8-(4-hydroxybut-1-yn-1-yl)-1-methyl-2-oxo-2,3,4,5-tetrahydro-1H-benzo[b]azepin-3-yl)oxalamide] | ≥ 75% | < 100 nM | A (A: ≥90%)
COC1(C#Cc2ccc3c(c2)N(C)C(=O)[C@@H](NC(=O)C(=O)NCCc2ccccc2)CO3)COC1 [Example 78, (S)—N^1-(7-((3-methoxyoxetan-3-yl)ethynyl)-5-methyl-4-oxo-2,3,4,5-tetrahydrobenzo[b][1,4]oxazepin-3-yl)-N^2-phenethyloxalamide] | 50 to 74% | < 100 nM | A (A: ≥90%)
CN1C(=O)C(NC(=O)C(=O)NCCc2ccccc2)CCc2ccc(Br)cc21 (stereo not drawn) [Example 61, N^1-(8-bromo-1-methyl-2-oxo-2,3,4,5-tetrahydro-1H-benzo[b]azepin-3-yl)-N^2-phenethyloxalamide] | ≥ 75% | < 100 nM | A (A: ≥90%)
CN1C(=O)[C@@H](NC(=O)C(=O)NCCc2cccc(F)c2)COc2ccc(C#CCN3C(=O)CCC3=O)cc21 [Example 122, (S)—N^1-(7-(3-(2,5-dioxopyrrolidin-1-yl)prop-1-yn-1-yl)-5-methyl-4-oxo-2,3,4,5-tetrahydrobenzo[b][1,4]oxazepin-3-yl)-N^2-(3-fluorophenethyl)oxalamide] | ≥ 75% | < 100 nM | A (A: ≥90%)
CC(CNC(=O)C(=O)N[C@H]1COc2ccc(C#CCCO)cc2N(C)C1=O)c1ccccc1 (mixture of isomers) [Example 154, N^1-((S)-7-(4-hydroxybut-1-yn-1-yl)-5-methyl-4-oxo-2,3,4,5-tetrahydrobenzo[b][1,4]oxazepin-3-yl)-N^2-(2-phenylpropyl)oxalamide] | ≥ 75% | < 100 nM | A (A: ≥90%)
C[C@@H](NC(=O)C(=O)N[C@H]1COc2ccc(C#CC3CCN(CC#N)CC3)cc2N(C)C1=O)c1ccccc1 [Example 137, N^1-((S)-7-((1-(cyanomethyl)piperidin-4-yl)ethynyl)-5-methyl-4-oxo-2,3,4,5-tetrahydrobenzo[b][1, 4]oxazepin-3-yl)-N^2-((R)-1-phenylethyl)oxalamide] | ≥ 75% | < 100 nM | A (A: ≥90%)

The next lines start with results.

inhibition at 1 µM (RIPK1 kinase [1]) | IC50 (RIPK1 kinase [2]) | Compound | Inhibition rate range of compounds (1 μM) on U937 cell necroptosis (U937 cells)
≥ 75% | < 100 nM | CN1C(=O)[C@@H](NC(=O)C(=O)NCCc2ccccc2)COc2ccc(C#CCN3CCC(O)C3)cc21 (stereo partly drawn) [Example 46, N^1-((3S)-7-(3-(3-hydroxypyrrolidin-1-yl)prop-1-yn-1-yl)-5-methyl-4-oxo-2,3,4,5-tetrahydrobenzo[b][1,4]oxazepin-3-yl)-N^2-phenethyloxalamide] | A (A: ≥90%)
50 to 74% | < 100 nM | CN1C(=O)[C@@H](NC(=O)C(=O)NCCc2ccccc2)COc2ccc(C#CCN3CCOCC3)cc21 [Example 48, (S)—N^1-(5-methyl-7-(3-morpholinoprop-1-yn-1-yl)-4-oxo-2,3,4,5-tetrahydrobenzo[b][1,4]oxazepin-3-yl)-N^2-phenethyloxalamide] | A (A: ≥90%)
≥ 75% | < 100 nM | CN1C(=O)[C@@H](NC(=O)C(=O)NCCc2ccccc2)COc2ccc(C#CCN3C(=O)CCC3=O)cc21 [Example 84, (S)—N^1-(7-(3-(2,5-dioxopyrrolidin-1-yl)prop-1-yn-1-yl)-5-methyl-4-oxo-2,3,4,5-tetrahydrobenzo[b][1,4]oxazepin-3-yl)-N^2-phenethyloxalamide] | A (A: ≥90%)
≥ 75% | < 100 nM | C[C@@H](NC(=O)C(=O)N[C@H]1COc2ccc(C#CCN3CC[C@@H](O)C3)cc2N(C)C1=O)c1ccccc1 [Example 128, N^1-((S)-7-(3-((R)-3-hydroxypyrrolidin-1-yl)prop-1-yn-1-yl)-5-methyl-4-oxo-2,3,4,5-tetrahydrobenzo[b][1,4]oxazepin-3-yl)-N^2-((R)-1-phenylethyl)oxalamide] | B (B: 50-89%)
50 to 74% | < 100 nM | CN1C(=O)[C@@H](NC(=O)C(=O)NCc2ccccc2)COc2ccc(C#CCN3CCNC(=O)C3)cc21 [Example 107, (S)—N^1-benzyl-N^2-(5-methyl-4-oxo-7-(3-(3-oxopiperazin-1-yl)prop-1-yn-1-yl)-2,3,4,5-tetrahydrobenzo[b][1,4]oxazepin-3-yl)oxalamide] | A (A: ≥90%)
50 to 74% | < 100 nM | CN1C(=O)[C@@H](NC(=O)C(=O)NCCc2ccccc2)COc2ccc(C#CC3(O)CCCCC3)cc21 [Example 44, (S)—N^1-(7-((1-hydroxycyclohexyl)ethynyl)-5-methyl-4-oxo-2,3,4,5-tetrahydrobenzo[b][1,4]oxazepin-3-yl)-N^2-phenethyloxalamide] | A (A: ≥90%)
25 to 49% | < 100 nM | CN1C(=O)[C@@H](NC(=O)C(=O)NCCc2ccccc2)COc2ccc(C#CCCNS(C)(=O)=O)cc21 [Example 51, (S)—N^1-(5-methyl-7-(4-(methylsulfonamido)but-1-yn-1-yl)-4-oxo-2,3,4,5-tetrahydrobenzo[b][1,4]oxazepin-3-yl)-N^2-phenethyloxalamide] | A (A: ≥90%)
50 to 74% | < 100 nM | CN1C(=O)[C@@H](NC(=O)C(=O)NCCc2ccccc2)COc2ccc(C#CC3CCCNC3)cc21 (stereo partly drawn) [Example 24, N^1-((3S)-5-methyl-4-oxo-7-(piperidin-3-ylethynyl)-2,3,4,5-tetrahydrobenzo[b][1,4]oxazepin-3-yl)-N^2-phenethyloxalamide] | A (A: ≥90%)
≥ 75% | < 100 nM | CN1C(=O)[C@@H](NC(=O)C(=O)NCCc2ccccc2)COc2ccc(C#CCN3CCC(O)CC3)cc21 [Example 81, (S)—N^1-(7-(3-(4-hydroxypiperidin-1-yl)prop-1-yn-1-yl)-5-methyl-4-oxo-2,3,4,5-tetrahydrobenzo[b][1,4]oxazepin-3-yl)-N^2-phenethyloxalamide] | A (A: ≥90%)
